Experimental data reported in US20050037436A1, “Test systems and the use thereof for identifying and characterizing compounds” (priority 2000, published 2005).
Several values for one entry are separate records, joined by “and”; a condition that tells them apart may be missing. Equal values may be shown once. Entries after “also recorded” stand apart in the source; their conditions may differ. Read-outs that look alike come from different tables or passages of the source.

What was measured:
HC110-R [1] = type: cell-based, Haemonchus contortus; conditions: for α-LTX-induced increase in [Ca2+]i after preincubation: substance removed, then 75 nM α-LTX
Protocol: The intracellular free Ca^2+ concentration [Ca^2+]i was measured in COS-7 and HEK293 cells transiently transfected with the HC110-R-EGFP or β2-AR-EGFP construct using the calcium imaging method (see also FIG. 11). In each case 2×10^5 COS-7 and HEK293 cells were applied to a 42 mm cover glass coated with 1% gelatine in 55 mm tissue culture dishes with 5 ml of DMEM medium (with 10% FCS and pen/strep). The transfection took place with the aid of the non-liposomal transfection reagent FuGENE 6 (Roche Molecular Biochemicals, Mannheim). […] Constructs of the HC110-R full-length clone with a GFP tag fused in the correct reading frame, and the complete cDNA of the β2-adrenergic receptor which had likewise been provided with a GFP tag at the 3′ end, were transfected.
After the incubation, the cells loaded with Fura-2/AM were examined under an inverted microscope (Zeiss, Axiovert, Germany) and, in parallel with this, in a digital imaging fluorescence microscope (PTI) and differentiated into transfected and untransfected cells at a wavelength of 440 and 490 nm respectively. On average, 5-7 transfected and non transfected cells were selected by fixing an ROI (region of interest). The extinction was measured at 340 nm (calcium-bound Fura-2/AM) and 380 nm (free Fura-2/AM), and the emission was measured at 510 nm. Evaluation took place using the Image Master 1.x software by forming the quotient of 340:510 nm, 380:510 nm and the ratio of 340/380:510 nm (background corrected images) as a function of the agent added.
Agents were always added 6 min after starting the measurement by removing an appropriate volume of Na^+ HBS buffer and pipetting the agent directly into the sample vessel for a further 30 to 50 min. The total volume in the sample vessel was constant at 1.5 ml throughout the experiment. […] Addition of CdCl2 and nifedipine took place immediately at the start of the experiment and before addition of α-LTX, and EGTA was added both at the start of the experiment and 4 min after the addition of α-LTX. Dissolved α-LTX was present in a concentration of 300 nM in 50 mM tris-HCl, pH 8.0; BAY 44-4400 was initially dissolved in pure DMSO (stock solutions between 0.004 and 10 μg/ml). The stock solutions were adjusted to the required concentration in the Na^+ HBS buffer. The maximum amount of the active substance BAY 44-4400 which could be dissolved at a final concentration of 0.1% DMSO was found by setting up serial dilutions in Na^+ HBS.
The data were analyzed using the Excel 98 table calculation programme. The results are derived from at least 2-4 reproduced experiments on in each case 4-8 transfected and un-transfected cells.

nematodes [2] = test: Anthelmintic / neuropharmacological activity on nematodes
HC110-R [3] = test: Ca2+ imaging of HEK-293 cells expressing HC110-R-Myc/His; type: cell-based, Haemonchus contortus; conditions: stably expressing cells; 400 ng/ml added 6 min before 75 nM α-LTX
HC110-R [4] = type: binding, Haemonchus contortus; conditions: renatured; fragment expressed in E. coli
From the text: Since denaturation of proteins is necessary for carrying out SDS-PAGE, there may be destruction of conformation-dependent epitopes. Antibodies or proteins which specifically recognize such epitopes may therefore no longer bind. […] BAY44-4400 differs from PF1022A by 2 morpholine residues which are covalently bonded to the phenyl rings of the two D-phenyllactyl radicals of PF1022A. […] For this purpose, total protein from untransfected HEK-293 cells and HEK-293 cells which transiently express HC110-R-Myc/His, and from the 54 kDa N terminus and the 21 kDa C terminus of HC110-R which were expressed in E. coli, were fractionated by SDS-PAGE, renatured and blotted in the usual way. […] In addition, a partially renatured SDS polyacrylamide gel with the protein fractions of untransfected HEK-293 cells, HEK-293 cells transiently transfected with HC110-R-Myc/His, and the N terminus of HC110-R expressed in E. coli and total protein from H. contortus was blotted, incubated with PF1022A-biotin and detected using streptavidin HRP.

M1-R-GFP = biological target: T1, M1-R-GFP (Homo sapiens, UniProt P11229); test: PF1022A binding by FACScan, M1-R-GFP control cells
T1 construct: The full-length cDNA of a human muscarinic receptor 1 (huM1Rez); expressed in transfected cells; host or cells: HEK-293, transient (pEGFP-N3)
T1 sequence (P11229 1-460): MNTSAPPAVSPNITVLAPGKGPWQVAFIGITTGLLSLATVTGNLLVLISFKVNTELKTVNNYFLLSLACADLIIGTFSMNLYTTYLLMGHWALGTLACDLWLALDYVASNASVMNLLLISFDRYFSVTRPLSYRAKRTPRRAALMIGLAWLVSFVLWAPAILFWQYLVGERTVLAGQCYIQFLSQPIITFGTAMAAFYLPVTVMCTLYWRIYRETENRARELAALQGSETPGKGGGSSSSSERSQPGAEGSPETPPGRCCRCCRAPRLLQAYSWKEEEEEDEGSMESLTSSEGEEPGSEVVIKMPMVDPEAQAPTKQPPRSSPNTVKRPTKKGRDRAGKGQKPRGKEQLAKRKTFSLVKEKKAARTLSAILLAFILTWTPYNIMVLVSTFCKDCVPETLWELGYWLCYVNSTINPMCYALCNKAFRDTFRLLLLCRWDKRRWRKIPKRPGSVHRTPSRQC
Protocol: (§1) For this purpose, HEK-293 cells were transiently transfected with HC110-R-GFP or GFP-HC110-R or else transiently cotransfected with HC110-R-Myc/His and GFP. […] 24 h after the transfection, the cells were incubated with biotinylated PF1022A, and PF1022A-bound cells were detected using streptavidin-phycoerythrin and were finally fixed. A negative control of cells transfected with HC110-R-GFP was incubated only with streptavidin-phycoerythrin without PF1022A-biotin.
(§2) Phycoerythrin has—like TRITC—an absorption spectrum which overlaps with EGFP, while the emission spectra are adequately separated, so that both fluorochromes can be excited at only one wavelength. Cell detritus was excluded from the measurement of the fluorescence intensity by setting a ‘gate’ on the main cell population. For quantitative evaluation, the limits were fixed for negative, unstained and positive, GFP-fluorescent cells on the basis of the untransfected and GFP-transfected cells.
(§3) In each case 5×10^5 HEK-293 cells which were not transfected, were transiently transfected with GFP, HC110-R-GFP, GFP-HC110-R, β2-R-GFP and M1-R-GFP, and transiently cotransfected with HC110-R-Myc/His and GFP were incubated, 24 h after the transfection, with 0.5 μg/ml PF1022A-biotin and streptavidin-phycoerythrin (1:300) and then fixed. […]

HEK-293 cells = test: PF1022A binding by FACScan, untransfected and GFP-transfected control cells; set-up: species or system human; conditions: for Phycoerythrin fluorescence: 0.5 μg/ml PF1022A-biotin + streptavidin-phycoerythrin
Protocol: as §1, §2
(§4) In each case 5×10^5 HEK-293 cells which were not transfected, were transiently transfected with GFP, HC110-R-GFP, GFP-HC110-R, β2-R-GFP and M1-R-GFP, and transiently cotransfected with HC110-R-Myc/His and GFP were incubated, 24 h after the transfection, with 0.5 μg/ml PF1022A-biotin and streptavidin-phycoerythrin (1:300) and then fixed. As negative controls, HC110-R-GFP-transfected cells were incubated only with streptavidin-phycoerythrin, without PF1022A-biotin. […] The standard deviation is derived by determining the means of triplicate mixtures.

HC110-R [5] = type: binding, Haemonchus contortus; conditions: mixture of N terminus and C terminus expressed in E. coli
Protocol: In a control mixture with 4 mg of Dynal beads, TST buffer was added in place of PF1022A. Excess PF1022A-biotin was removed by magnetic separation before a mixture of the HC110-R terminus and C terminus expressed in E. coli and previously purified by affinity chromatography was added. After renewed magnetic separation to remove unbound HC110-R fragments, one aliquot derived from 2 mg, and one from 4 mg, of Dynal beads was fractionated by SDS-PAGE and blotted. Detection of the precipitate took place via the N-terminally fused His tag with a mouse anti-His IgG and a rabbit anti-mouse IgG HRP antibody. […] Nonspecific binding of the N or C terminus of HC110-R to the streptavidin-coupled beads was precluded by adding no biotinylated PF1022A to a reaction mixture.

nematodes [6] = conditions: depending on the particular species (Terada, 1992); cited from earlier work
HC110-R [7] = test: PF1022A binding to HC110-R-transfected HEK-293 cells by FACScan; set-up: species or system Haemonchus contortus; conditions: for Phycoerythrin fluorescence: 0.5 μg/ml PF1022A-biotin + streptavidin-phycoerythrin
Protocol: as §1, §2, §4

β2-R-GFP = biological target: T2, β2-R-GFP (Mus musculus, UniProt P18762); test: PF1022A binding by FACScan, β2-R-GFP control cells
T2 construct: was fused with a C-terminal EGFP tag by amplifying the full-length cDNA with the P117 mouse 2AR XhoI 5′ primer; expressed in transfected cells; host or cells: HEK-293, transient (pEGFP-N3)
T2 sequence (P18762 whole entry, the tested form may be a part): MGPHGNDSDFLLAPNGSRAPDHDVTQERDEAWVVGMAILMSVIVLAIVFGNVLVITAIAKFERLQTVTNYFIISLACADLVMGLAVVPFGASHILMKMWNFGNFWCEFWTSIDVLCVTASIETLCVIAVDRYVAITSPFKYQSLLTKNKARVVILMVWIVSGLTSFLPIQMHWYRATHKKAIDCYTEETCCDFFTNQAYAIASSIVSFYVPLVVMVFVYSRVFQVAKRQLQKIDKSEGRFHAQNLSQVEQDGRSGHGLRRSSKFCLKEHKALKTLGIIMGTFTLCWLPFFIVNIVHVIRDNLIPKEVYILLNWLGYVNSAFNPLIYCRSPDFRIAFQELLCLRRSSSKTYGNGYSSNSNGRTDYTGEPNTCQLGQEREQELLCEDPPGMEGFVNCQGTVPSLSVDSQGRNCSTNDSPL
Protocol: as §1, §2, §3

[8] = Ca2+ imaging, arecoline stimulation of untransfected HEK-293 cells; type: cell-based, human; conditions: 1 mM arecoline; absence of BAY44-4400

Compound: O=C(O)CN(CCOCCOCCN(CC(=O)O)CC(=O)O)CC(=O)O [EGTA]
- α-LTX-induced increase in [Ca2+]i with extracellular Ca2+ removed (HC110-R [1]; 2 mM EGTA before or after addition of α-LTX): only a small increase

Compound: CC(C)C[C@@H]1C(=O)O[C@@H](Cc2ccccc2)C(=O)N(C)[C@H](CC(C)C)C(=O)O[C@@H](C)C(=O)N(C)[C@H](CC(C)C)C(=O)O[C@@H](Cc2ccccc2)C(=O)N(C)[C@H](CC(C)C)C(=O)O[C@@H](C)C(=O)N1C [PF1022-001, cyclo(-L-Lac-D-MeLeu-L-PhLac-D-Me-Leu-)2]
- anthelmintic / nematicidal activity in words (nematodes [2]): has no anthelmintic activity; also recorded: virtually ineffective
- α-LTX-induced increase in [Ca2+]i in presence of substance (HC110-R [1]; 4 ng/ml added 6 min before 75 nM α-LTX): 103 ± 11.5 nM
- α-LTX-induced increase in [Ca2+]i in presence of substance (HC110-R [1]; 4 ng/ml added 6 min before 75 nM α-LTX, listed as optical antipode): 67 nM
- change in [Ca2+]i after preincubation with substance alone (HC110-R [1]; 4 ng/ml or 400 ng/ml, 90 min preincubation, no α-LTX): no change in [Ca^2+]i
- α-LTX-induced increase in [Ca2+]i after preincubation (HC110-R [1]; 4 ng/ml, 90 min preincubation): 102 ± 6.4 nM
- α-LTX-induced increase in [Ca2+]i in presence of substance (HC110-R [1]; 400 ng/ml added 6 min before 75 nM α-LTX): 112+14.3 nM
- Ca2+ response to substance alone (HC110-R [1]; 400 ng/ml where stated, no α-LTX, up to 50 min or 90 min preincubation): neither the very effective nematicide BAY44-4400 nor the virtually ineffective antipode PF1022-001 induces a Ca^2+ response
- α-LTX-induced increase in [Ca2+]i after preincubation (HC110-R [1]; 400 ng/ml, 90 min preincubation): 109 ± 8.4 nM and 110 nM
- reduction of α-LTX-induced Ca2+ increase (HC110-R [1]; 400 ng/ml, 90 minutes preincubation, 6 minutes after 75 nM α-LTX): 59%
- Ca2+-mediated response to substance alone (HC110-R [1]; 100, 300 or 400 ng/ml and 1 or 10 μg/ml, 50 min, untransfected and HC110-R-GFP-transfected cells): At no concentration was a Ca^2+-mediated response detectable
- α-LTX-induced increase in Ca2+ at increased concentration of substance (HC110-R [1]; concentration above 4 ng/ml, added 6 minutes before 75 nM α-LTX): 20 nM
- α-LTX-induced increase in [Ca2+]i in presence of substance (HC110-R [3]): 209 ± 33.4 nM

Compound: CC(C)C[C@H]1C(=O)O[C@H](Cc2ccccc2)C(=O)N(C)[C@@H](CC(C)C)C(=O)O[C@H](C)C(=O)N(C)[C@@H](CC(C)C)C(=O)O[C@H](Cc2ccccc2)C(=O)N(C)[C@@H](CC(C)C)C(=O)O[C@H](C)C(=O)N1C [PF1022A, cyclo(-D-Lac-L-MeLeu-D-PhLac-L-MeLeu-)2]
- binding to 21 kDa C terminus of HC110-R (HC110-R [4]): no specific PF1022A binding
- Phycoerythrin fluorescence (M1-R-GFP): 1.6 ± 0.1%
- percentage of green-fluorescent cells that bind PF1022A (M1-R-GFP; cells expressing M1-R-GFP): 19.2%
- percentage of green-fluorescent cells that bind PF1022A (HEK-293 cells; cells expressing GFP): 7.5%
- Phycoerythrin fluorescence (HEK-293 cells; plasmid GFP): 1.3 ± 0.4%
- Phycoerythrin fluorescence (HEK-293 cells; untransfected): 0 ± 0%
- precipitation of HC110-R fragments (HC110-R [5]): Only the N-terminal 54 kDa region of HC110-R is precipitated
- concentrations at which effect on nematodes is exerted (nematodes [6]): 100 to 800 ng/mL
- change in response to α-LTX after preincubation (HC110-R [1]; 4 ng/ml or 400 ng/ml, 90 minutes preincubation, removed before α-LTX): no significant change in their response to α-LTX
- percentage of green-fluorescent cells that bind PF1022A (HC110-R [7]; cells cotransfected with HC110-R-Myc/His and GFP): 44.5%
- percentage of green-fluorescent cells that bind PF1022A (HC110-R [7]; cells expressing GFP-HC110-R): 26.8%
- percentage of green-fluorescent cells that bind PF1022A (HC110-R [7]; cells expressing HC110-R-GFP): 41.2%
- Phycoerythrin fluorescence (HC110-R [7]; plasmid GFP-HC110-R): 2.5 ± 0.3%
- Phycoerythrin fluorescence (HC110-R [7]; plasmid HC110-R-GFP, nonspecific staining subtracted): 4.5 ± 0.4%
- Phycoerythrin fluorescence (HC110-R [7]; plasmids HC110-R-Myc/His + GFP): 10.3 ± 0.7%
- Phycoerythrin fluorescence (β2-R-GFP): 0.8 ± 0.1%
- percentage of green-fluorescent cells that bind PF1022A (β2-R-GFP; cells expressing 2-R-GFP): 9.9%

Compound: COC(=O)C1=CCCN(C)C1 [arecoline]
- arecoline-induced increase in Ca2+ [8]: 27 ± 3.5 nM
